Test results reported in PubChem BioAssay AID2060510 (Molecular Pharmacology Branch, DTP, NCI, 2025).

Tested on: 439559-082-T-J2-PDC spheroids viability
Test: Anticancer human tumor 439559-082-T-J2-PDC patient-derived colon adenocarcinoma cell line growth inhibition [GQUAD]
Conditions: for IC50: curve of first compound; for viability, T/C: stronger effect = lower value
Method in brief: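 Multi-cell-type spheroids of tumor cells with HUVEC and mesenchymal stem cells, treated with drug combinations. Concentrations descend in half-log steps from near clinical Cmax, or from 10 microM where Cmax is unknown; viability read-out.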

[1] = second compound 0.0316 µM, first compound 0.0316 µM
[2] = second compound 0.0316 µM, first compound 0.1 µM
[3] = second compound 0.0316 µM, first compound 0.316 µM
[4] = second compound 0.0316 µM, first compound 1 µM
[5] = second compound 0.0316 µM, first compound 3.16 µM
[6] = second compound 0.0316 µM, first compound 10 µM
[7] = second compound 0.1 µM, first compound 0.0316 µM
[8] = second compound 0.1 µM, first compound 0.1 µM
[9] = second compound 0.1 µM, first compound 0.316 µM
[10] = second compound 0.1 µM, first compound 1 µM
[11] = second compound 0.1 µM, first compound 3.16 µM
[12] = second compound 0.1 µM, first compound 10 µM
[13] = second compound 0.316 µM, first compound 0.0316 µM
[14] = second compound 0.316 µM, first compound 0.1 µM
[15] = second compound 0.316 µM, first compound 0.316 µM
[16] = second compound 0.316 µM, first compound 1 µM
[17] = second compound 0.316 µM, first compound 3.16 µM
[18] = second compound 0.316 µM, first compound 10 µM
[19] = second compound 1 µM, first compound 0.0316 µM
[20] = second compound 1 µM, first compound 0.1 µM
[21] = second compound 1 µM, first compound 0.316 µM
[22] = second compound 1 µM, first compound 1 µM
[23] = second compound 1 µM, first compound 3.16 µM
[24] = second compound 1 µM, first compound 10 µM
[25] = second compound 3.16 µM, first compound 0.0316 µM
[26] = second compound 3.16 µM, first compound 0.1 µM
[27] = second compound 3.16 µM, first compound 0.316 µM
[28] = second compound 3.16 µM, first compound 1 µM
[29] = second compound 3.16 µM, first compound 3.16 µM
[30] = second compound 3.16 µM, first compound 10 µM
[31] = second compound 10 µM, first compound 0.0316 µM
[32] = second compound 10 µM, first compound 0.1 µM
[33] = second compound 10 µM, first compound 0.316 µM
[34] = second compound 10 µM, first compound 1 µM
[35] = second compound 10 µM, first compound 3.16 µM
[36] = second compound 10 µM, first compound 10 µM
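Also: spheroids exposed to the agents for 7 days before readout.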
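For viability, T/C in this document: percent of luminescence signal in DMSO vehicle wells taken as 100% viability.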

SMILES: Nc1ccn(C2OC(CO)C(O)C2(F)F)c(=O)n1 (centres undefined) + Cc1[nH]c2ccc(F)cc2c1-c1nc2c3cccnc3c3ncccc3c2[nH]1
- IC50 (second compound 0.0316 µM): 375 nM
- IC50 (second compound 0.1 µM): 468 nM
- IC50 (second compound 0.316 µM): 362 nM
- IC50 (second compound 1 µM): 304 nM
- IC50 (second compound 3.16 µM): 203 nM
- IC50 (second compound 10 µM): 211 nM
- viability, T/C [1]: 84.5%
- viability, T/C [2]: 76.7%
- viability, T/C [3]: 51.8%
- viability, T/C [4]: 34.9%
- viability, T/C [5]: 26.7%
- viability, T/C [6]: 25.9%
- viability, T/C [7]: 92.7%
- viability, T/C [8]: 71.9%
- viability, T/C [9]: 59%
- viability, T/C [10]: 36.9%
- viability, T/C [11]: 29.5%
- viability, T/C [12]: 23.3%
- viability, T/C [13]: 98.8%
- viability, T/C [14]: 73.6%
- viability, T/C [15]: 47.8%
- viability, T/C [16]: 41.3%
- viability, T/C [17]: 28.6%
- viability, T/C [18]: 23.7%
- viability, T/C [19]: 82.8%
- viability, T/C [20]: 67.8%
- viability, T/C [21]: 50.4%
- viability, T/C [22]: 32.8%
- viability, T/C [23]: 27.6%
- viability, T/C [24]: 22.6%
- viability, T/C [25]: 73.3%
- viability, T/C [26]: 65.1%
- viability, T/C [27]: 38.6%
- viability, T/C [28]: 31%
- viability, T/C [29]: 26.4%
- viability, T/C [30]: 17.5%
- viability, T/C [31]: 73.2%
- viability, T/C [32]: 66.2%
- viability, T/C [33]: 40.9%
- viability, T/C [34]: 27%
- viability, T/C [35]: 26.2%
- viability, T/C [36]: 19%

SMILES: O=c1[nH]cc(F)c(=O)[nH]1 + Cc1[nH]c2ccc(F)cc2c1-c1nc2c3cccnc3c3ncccc3c2[nH]1
- IC50 (second compound 0.0316 µM): > 10000 nM
- IC50 (second compound 0.1 µM): > 10000 nM
- IC50 (second compound 0.316 µM): > 10000 nM
- IC50 (second compound 1 µM): > 10000 nM
- IC50 (second compound 3.16 µM): > 10000 nM
- IC50 (second compound 10 µM): > 10000 nM
- viability, T/C [1]: 90.7%
- viability, T/C [2]: 95.5%
- viability, T/C [3]: 87.7%
- viability, T/C [4]: 78.9%
- viability, T/C [5]: 76.8%
- viability, T/C [6]: 82.3%
- viability, T/C [7]: 101%
- viability, T/C [8]: 89.8%
- viability, T/C [9]: 83.3%
- viability, T/C [10]: 75.1%
- viability, T/C [11]: 73.3%
- viability, T/C [12]: 83.4%
- viability, T/C [13]: 101%
- viability, T/C [14]: 99.2%
- viability, T/C [15]: 83.7%
- viability, T/C [16]: 74.8%
- viability, T/C [17]: 79.5%
- viability, T/C [18]: 76.3%
- viability, T/C [19]: 91.9%
- viability, T/C [20]: 96.3%
- viability, T/C [21]: 79.1%
- viability, T/C [22]: 72.8%
- viability, T/C [23]: 70.6%
- viability, T/C [24]: 72.3%
- viability, T/C [25]: 103%
- viability, T/C [26]: 88.8%
- viability, T/C [27]: 76.5%
- viability, T/C [28]: 65%
- viability, T/C [29]: 62.5%
- viability, T/C [30]: 59.1%
- viability, T/C [31]: 82.2%
- viability, T/C [32]: 81.9%
- viability, T/C [33]: 67.9%
- viability, T/C [34]: 59.3%
- viability, T/C [35]: 57.5%
- viability, T/C [36]: 59.8%
